Assay results from PubChem BioAssay (NCI).
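1) Cells in 96-well plates. 2) Compound, 48 h, 5 concentrations. 3) Linear interpolation between surrounding doses. 4) Unreached endpoint = highest concentration. GI50 = concentration required for 50% inhibition of growth. TGI denotes the concentration required for complete inhibition of growth.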

Experiments:
Test in all cases: NCI tumour cell line growth inhibition, 48 h
[1] = tested on: LOX IMVI melanoma
[2] = tested on: SK-MEL-5 melanoma
[3] = tested on: SR leukemia
[4] = tested on: IGROV1 ovarian
[5] = tested on: MALME-3M melanoma
[6] = tested on: SF-268 CNS
[7] = tested on: UO-31 renal
[8] = tested on: HCC-2998 colon
[9] = tested on: UACC-257 melanoma

`CN1C(=O)N(C)C2C1NN=c1s/c(=C\c3ccc(F)cc3)c(=O)n12` (stereo not given) was tested, and the GI50 [1] was 6.01 µM, the TGI [1] was over 100 µM and the GI50 [2] was 0.995 µM. For the same compound, the TGI [2] was 12 µM, the GI50 [3] was 0.374 µM and the TGI [3] was 20 µM. For the same compound, the GI50 [4] was 3.21 µM, the TGI [4] was over 100 µM and the GI50 [5] was 3.17 µM. It also gave a TGI [5] of over 100 µM, a GI50 [6] of 4.62 µM and a TGI [6] of over 100 µM. For the same compound, the GI50 [7] was 3.9 µM, the TGI [7] was over 100 µM and the GI50 [8] was 13.4 µM. For the same compound, the TGI [8] was over 100 µM, the GI50 [9] was 3.02 µM and the TGI [9] was over 100 µM.
Compound `O=C(N/N=C(/CCN1CCCC1)CC(c1ccccc1)c1c(O)c2ccccc2oc1=O)c1ccncc1` (stereo not given) has a TGI [1] of over 100 µM, a TGI [2] of over 100 µM and a TGI [3] of 48.6 µM. For the same compound, the TGI [4] was over 100 µM, the TGI [5] was over 100 µM and the TGI [6] was over 100 µM. The TGI [7] was over 100 µM, the TGI [8] was over 100 µM and the TGI [9] was over 100 µM.
Compound `Nc1ccccc1C#C/C=C\C#Cc1ccccc1[N+](=O)[O-]` has a GI50 [1] of 2.28 µM, a TGI [1] of 15.7 µM and a GI50 [2] of 3.08 µM. It also gave a TGI [2] of 18.6 µM, a GI50 [3] of 0.289 µM and a TGI [3] of 5.54 µM. It also gave a GI50 [4] of 10.9 µM, a TGI [4] of 79.8 µM and a GI50 [6] of 6.38 µM. For the same compound, the TGI [6] was 27.7 µM, the GI50 [7] was 10.5 µM and the TGI [7] was 28.4 µM. For the same compound, the GI50 [8] was 12 µM, the TGI [8] was 43.6 µM and the GI50 [9] was 4.98 µM. It also gave a TGI [9] of 20 µM.
`Cc1cccc(C)c1NC(=O)C1C(=O)N(c2c(C)cccc2C)C(=O)/C1=N\NC(N)=S` (stereo not given) was tested, and the TGI [2] was over 100 µM, the TGI [4] was over 100 µM and the TGI [5] was over 100 µM. The TGI [6] was over 100 µM, the TGI [7] was over 100 µM and the TGI [8] was over 100 µM. For the same compound, the TGI [9] was over 100 µM.
With `CC1C(=O)OCC2=CCN3CCC(OC(=O)C(C)C1(C)O)C23` (stereo not given) the TGI [1] was over 100 µM, the TGI [2] was over 100 µM and the TGI [4] was over 100 µM. It also gave a TGI [5] of over 100 µM, a TGI [6] of over 100 µM and a TGI [7] of over 100 µM. It also gave a TGI [8] of over 100 µM and a TGI [9] of over 100 µM.
For `COc1ccc2c(c1)/C(=C\c1c(Cl)[nH]c3ccc(OC)cc13)C(=O)N2`, the GI50 [1] was 25.8 µM, the TGI [1] was 54.3 µM and the TGI [2] was 25.3 µM. For the same compound, the GI50 [4] was 56.9 µM, the TGI [4] was over 100 µM and the GI50 [5] was 21 µM. It also gave a TGI [5] of 44.1 µM, a GI50 [6] of 61.2 µM and a TGI [6] of over 100 µM. It also gave a GI50 [7] of 87.1 µM, a TGI [7] of over 100 µM and a GI50 [9] of 37.3 µM. It also gave a TGI [9] of over 100 µM.
`CCOC(=O)c1cc(/C=C/C(C)=C/C(=O)OC)oc1C` showed a TGI [1] of over 100 µM, a TGI [3] of over 100 µM and a TGI [4] of over 100 µM. For the same compound, the TGI [5] was over 100 µM, the TGI [6] was over 100 µM and the TGI [7] was over 100 µM. The TGI [9] was over 100 µM.
Compound `O=C1c2cc(Cl)ccc2-c2c1c1ccc([N+](=O)[O-])cc1c(=O)n2CCCBr` has a GI50 [1] of 2.37 µM, a TGI [1] of 24 µM and a GI50 [2] of 3.21 µM. The TGI [2] was 24.3 µM, the GI50 [4] was 5.77 µM and the TGI [4] was 90.8 µM. For the same compound, the GI50 [5] was 9.32 µM, the TGI [5] was 82 µM and the GI50 [6] was 1.65 µM. It also gave a TGI [6] of over 100 µM, a GI50 [7] of 2.64 µM and a TGI [7] of 31 µM. It also gave a GI50 [8] of 42.6 µM, a TGI [8] of over 100 µM and a GI50 [9] of 41.4 µM. For the same compound, the TGI [9] was over 100 µM.
Work on `CCn1c2ccc(O)cc2c2c(C)c3c[n+](C)ccc3c(C)c21` yielded a GI50 [1] of 8.83 µM, a TGI [1] of over 100 µM and a GI50 [2] of 2.27 µM. For the same compound, the TGI [2] was 10.8 µM, the GI50 [5] was 1.32 µM and the TGI [5] was 7.12 µM. For the same compound, the GI50 [6] was 0.122 µM, the TGI [6] was 4.33 µM and the GI50 [7] was 14.9 µM. For the same compound, the TGI [7] was over 100 µM, the GI50 [8] was 3.9 µM and the TGI [8] was 23.4 µM.
In the case of `O=C(O)C1CCCCC1C(=O)O.[NH-]C1CCC1.[NH2-].[Pt+2]` (stereo not given), the GI50 [1] is reported as 6.35 µM, the TGI [1] is reported as 23.3 µM and the GI50 [2] is reported as 3.36 µM. For the same compound, the TGI [2] was 12.5 µM, the GI50 [3] was 3.72 µM and the TGI [3] was over 100 µM. For the same compound, the GI50 [4] was 57.5 µM, the TGI [4] was over 100 µM and the GI50 [5] was 18.6 µM. For the same compound, the TGI [5] was 38.6 µM, the GI50 [6] was over 100 µM and the TGI [6] was over 100 µM. The GI50 [7] was 19.4 µM, the TGI [7] was 50.3 µM and the GI50 [9] was 15 µM. For the same compound, the TGI [9] was 36.6 µM.
For `CN(C)CCCNC(=O)c1ccc2c(c1)oc1cc3ccccc3c(=O)n12`, the GI50 [1] was 9.4 µM, the TGI [1] was 17.9 µM and the GI50 [2] was 6.1 µM. For the same compound, the TGI [2] was 13 µM, the GI50 [3] was 10 µM and the TGI [3] was 46.6 µM. For the same compound, the GI50 [4] was 9.94 µM, the TGI [4] was 43.5 µM and the GI50 [5] was over 50 µM. It also gave a TGI [5] of over 50 µM, a GI50 [6] of 16.1 µM and a TGI [6] of 40 µM. For the same compound, the GI50 [7] was 8.75 µM, the TGI [7] was 20.2 µM and the GI50 [9] was 12.6 µM. For the same compound, the TGI [9] was 36.8 µM.
Work on `Nc1ccccc1C#C/C=C\C#Cc1ccccc1` yielded a GI50 [1] of 10.3 µM, a TGI [1] of 24.1 µM and a GI50 [2] of 5 µM. The TGI [2] was 18.5 µM, the GI50 [6] was 5.93 µM and the TGI [6] was 28 µM. It also gave a GI50 [7] of 17.7 µM, a TGI [7] of 59.3 µM and a GI50 [9] of 27.7 µM. It also gave a TGI [9] of over 100 µM.
Work on `Cc1c(C(=O)NCCN2CCOCC2)cn2ncnc(Oc3ccc(NC(=O)Nc4ccc(Cl)c(C(F)(F)F)c4)cc3)c12` yielded a GI50 [1] of 0.601 µM, a TGI [1] of 1.94 µM and a GI50 [2] of 1.65 µM. For the same compound, the TGI [2] was 3.01 µM, the GI50 [3] was 0.339 µM and the TGI [3] was 2.26 µM. For the same compound, the GI50 [5] was 1.09 µM, the TGI [5] was 2.76 µM and the GI50 [7] was 2.18 µM. It also gave a TGI [7] of 3.83 µM, a GI50 [8] of 2.04 µM and a TGI [8] of 3.71 µM.
